{
  "source": "patent US20040136938A1",
  "about": "“Composition of vitamin c and/or vitamin a” (priority 2000, published 2004)",
  "key": {"[1]": {"system": "fibroblasts of mammaplasty", "assay": "Collagen synthesis by fibroblasts (Sirius red coloration)", "type": "cell-based, human", "method": "The fibroblasts of mammaplasty of a person, in passage 14, were seeded on 12-well plates at the rate of 0.5.10^5 cells per well. The cells are placed in culture for 48 hours in the presence of a DMEM culture medium at 10% of fetal calf serum (SVF), in stove (5% (v/v) CO2, 95% (v/v) air) at 37° C.\nAfter rinsing with PBS, they are treated and placed again in culture for 48 hours in the presence of products to be tested and of DMEM without SVF.\nThe method is based on a specific coloration of collagen by the Sirius red. The cells are directly fixed by the Bouin liquid (1 ml/well) for 1 hour, after exhaustive rinsing with PBS. The fixer is then aspirated and the plates are rinsed with running water by immersion for 15 minutes.\nThe coloration is carried out under stirring for 1 hour (1 ml/well) and the plates are then rinsed with hydrochloric acid 0.01 N. Then the material is dissolved in 200 μl of sodium hydroxide 0.1N before transferring to the microtiter plates (Nunc). The optical density is measured at 550 nm against sodium hydroxide as a blank.\nThe counting of the cells is carried out in 4 wells of each plate, and one detaches the cells with tripsin at 0.05%.\nOne studied the effect of fucose and of the Mixture of oligofucoses-1 (at 10 μg/ml each) in the presence or absence of sodium ascorbate at 500 μg/ml. And then in the presence or absence of retinol (10 μg/ml)."}, "[2]": {"system": "fibroblasts of human skin", "assay": "Cellular proliferation of fibroblasts of human skin ([3H]-thymidine incorporation, 72 h)", "type": "cell-based", "conditions": "for decrease in the cellular proliferation: retinol 20 μg/ml (69.72 μM) alone, vs. reference without retinol", "method": "The Mixture of oligofucoses-1 as prepared in example 1 is tested in concentrations of 1 μg/ml and 10μg/ml, both alone and in the simultaneous presence of 375 μg/ml of sodium ascorbate and/or 20 μg/ml of retinol.\nThe fibroblasts of human skin used in this study come from the removal of skin from a person (28th passing). The cells were cultivated on 12-well plates, in a DMEM culture medium with 10% of fetal calf serum (SVF), 1% of antibiotics and of antifungus (PSF), and 1 μCi/ml of [^3H]-timidine (ICN) for 72 hours in the presence of the products to be tested at final concentrations of 1 μg/ml and 10 μg/ml.\nAfter 72 hours of culture in stove (5% (v/v) CO2, 95% (v/v) air) at 37° C. in the presence of the tested products, the cells were washed four times with PBS, then the cellular carpet was detached for 0.05% of tripsin. Three ml of scintillation liquid were then added per sample, then the radioactivity incorporated in the cells is read in a computer with scintillation.\nOne incubated the cells with 20 μg/ml of retinol (69.72 μM). […] Two concentrations were tested: 1 μg/ml and 10 μg/ml.\nOne incubated the cells with 375 μg/ml of Na ascorbate (1.875 mM). […] Two concentrations were tested: 1 μg/ml and 10 μg/ml.\nThe cells were simultaneously incubated with 375 μg/ml of Na ascorbate and 20 μg/ml of retinol."}, "cells": {"system": "cells", "conditions": "cited from earlier work"}},
  "data": [
    {"smiles": "CC1=C(/C=C/C(C)=C/C=C/C(C)=C/CO)C(C)(C)CCC1", "note": "[Retinol, retinol]", "values": [
      {"measurement": "effect on synthesis of collagen", "setting": "[1]; retinol alone (10 μg/ml)", "value": "inhibiting effect on the synthesis of collagen"},
      {"measurement": "decrease in the cellular proliferation", "setting": "[2]", "value": "about 45%"},
      {"measurement": "decrease in the cellular proliferation", "setting": "[2]; listed as retinol", "value": 42.5, "unit": "%"},
      {"measurement": "% vs. control (proliferation)", "setting": "[2]; retinol 20 μg/ml alone", "value": "−42.5", "unit": "%"}
    ]},
    {"smiles": "O=C1O[C@H]([C@@H](O)CO)C(O)=C1O", "note": "[ascorbate]", "values": [
      {"measurement": "concentration at which cytotoxic effect can be observed", "setting": "cells; cell detachment, slowed proliferation, cellular death", "value": "about 2.5 mM"}
    ]},
    {"smiles": "O=C1O[C@H]([C@@H](O)CO)C([O-])=C1O.[Na+]", "note": "[Na ascorbate, sodium ascorbate]", "values": [
      {"measurement": "effect on synthesis of collagen", "setting": "[1]; sodium ascorbate 500 μg/ml alone, with respect to the effect of 50 μg/ml", "value": "activates the synthesis of collagen very little"},
      {"measurement": "% vs. control (proliferation)", "setting": "[2]; Na ascorbate 375 μg/ml alone", "value": "−64.4", "unit": "%"}
    ]},
    {"smiles": "O=C1O[C@H]([C@@H](O)CO)C(O)=C1O", "note": "[ascorbic acid]", "values": [
      {"measurement": "concentration from which cytotoxic effect starts", "setting": "cells", "value": "about 0.01 % by weight"}
    ]},
    {"smiles": "C[C@H](O)[C@@H](O)[C@@H](O)[C@H](O)C=O", "note": "[fucose]", "values": [
      {"measurement": "effect on synthesis of collagen in the presence of retinol", "setting": "[1]; 10 μg/ml with retinol 10 μg/ml, 48 h", "value": "this inhibition is greatly abolished"},
      {"measurement": "effect on biosynthesis of collagen in the presence of sodium ascorbate", "setting": "[1]; 10 μg/ml with sodium ascorbate 500 μg/ml, 48 h", "value": "stimulation of the biosynthesis of collagen"},
      {"measurement": "decrease in the amount of collagen synthesized by the fibroblasts", "setting": "[1]; fucose alone, 48 h, DMEM without SVF", "value": "about 19%"}
    ]}
  ]
}
